Reference: US4758597A, “Carenadiol and derivatives” (University Patents, Inc., priority 1987, dated 1988)

How the values were obtained:
[1] = Rat rotorod (ROT) test, differential neurotoxicity; type: in vivo; settings: iv, rats, tested 15 minutes after injection, 95% confidence limits printed in parentheses on the next line, read-out: ROT TD50 (median neurotoxic dose)
Experimental: (§1) With regard to the potential use of this family of compounds in the treatment of epilepsy, (+)-Carenadiol was evaluated in the audiogenic seizure (AGS-susceptible) rat model of eilepsy to assess its anticonvulsant activity, and the rat rotorod (ROT) paadigm was used to assess differential neurotoxicity (i.e., reflecting mainly sedation and/or incoordination), of this family of compounds.
(§2) For AGS tests, male and female, 150-225 gm, genetically epilepsy prone rats were used. For ROT tests, male and female, 150-225 gm. rats were used. CBD analogs (suspended in a vehicle of 10% polysorbate 80 and 90% distilled water) were injected intravenously and rats were tested 15 minutes later (a peak-effect time for both tests). In the AGS test, responses to sound were recorded as the presence or absence of seizure (i.e., generalized clonus or clonus and generalized flexion). In the ROT test, effects were measured as the ability or inability (i.e., neurotoxicity) of trained rats to remain on a revolving drum (rotorod) for 60 seconds.
(§3) Separate groups of 10-15 rats were used for each doses of drug tested and, typically, 3-6 doses of each analog were used for each AGS and ROT test. For appropriate dose-response data, median effective anticonvulsant (ED50) and neurotoxic (TD50) doses and regression line parameters were calculated by computer-assisted probit analysis. Subsequent calculations of 95% confidence limits (CL) and comparisons between slopes and median doses (i.e., ED50 and TD50 potency comparisons) were carried out using the method of Litchfield and Wilcoxon [J. Pharmacol Exp Ther 96:99-133(1949)].Protective indexes (PI =ROT-TD50/AGS-ED50) also were calculated.

[2] = Audiogenic seizure (AGS) test, anticonvulsant activity; type: in vivo, rat; settings: rat, in vivo; ratio of ROT TD50 to AGS ED50, iv, rats; read-out: PI (protective index = ROT-TD50/AGS-ED50)
Experimental: as §1, §2, §3

[3] = test system: genetically epilepsy prone rats; experiment: as above; type: in vivo, rat; settings: for ED50: Rattus norvegicus, 0.25 h, iv, rats, tested 15 minutes after injection, 95% confidence limits printed in parentheses on the next line, read-out: AGS ED50 (median effective anticonvulsant dose)
Experimental: as §1, §2, §3

laboratory animals = settings: cited from earlier work
[4] = in man; cited from earlier work

SMILES | TD50 at 0.25 h [1] [mg/kg] | selectivity ratio at 0.25 h [2] | ED50 [3] [mg/kg] | activity among the compounds synthesized and tested ([3]; comparison in words) | activity in models that predict cannabimimetic activity (laboratory animals) | antidystonic activity [4] | antiepileptic efficacy [4] | cannabimimetic activity [4] | side effects [4]
CCCCCc1cc(O)c(C2C=C(C)CC3C2C3(C)C)c(O)c1 (single isomer, unassigned; (+)) [(+)-5a] | 99.8 | 5.5 | 18.1 | the most active |  |  |  |  | 
CCCCCCC(C)(C)c1cc(O)c(C2C=C(C)CC3C2C3(C)C)c(O)c1 (single isomer, unassigned; (+)) [(+)-5b] | 3.7 | 1.1 | 3.4 |  |  |  |  |  | 
C=C(C)[C@@H]1CCC(C)=C[C@H]1c1c(O)cc(CCCCC)cc1O [(-)-CBD, (-)-Cannabidiol] |  |  |  |  | inactive | possibly antidystonic activity | antiepileptic efficacy | no cannabimimetic activity | no recognized and undesired side effects
NC(=O)N1c2ccccc2C=Cc2ccccc21 [Carbamazepine] | 33.9 | 2.7 | 12.8 |  |  |  |  |  | 
CCC1(c2ccccc2)C(=O)NC(=O)NC1=O [Phenobarbital] | 28.9 | 2.7 | 10.8 |  |  |  |  |  | 
O=C1NC(=O)C(c2ccccc2)(c2ccccc2)N1 [Phenytoin] | 23.9 | 1.6 | 14.7 |  |  |  |  |  | 
